# Experimental data taken from EP0326329B1, “Quinazoline derivatives useful as insecticides” (Dow AgroSciences LLC, priority 1988, dated 1989).
# Tested on: melon aphids (Aphis gossypii Glover)
# Experiment: Mite/insect screen, sprayed squash cotyledons (MA)
# Assay type: in vivo
# Settings: Aphis gossypii, percent mortality; spray rate 200 ppm; read-out: MA RESULTS %
# Summary of the method: (§1)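 Percent mortality and phytotoxicity are the read-outs, assessed after standard exposure periods. Test solutions, made in 50:50 acetone/alcohol with two sulfonate/nonionic emulsifier blends and diluted in water, are sprayed to runoff on both leaf surfaces, which then dry for one hour.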
row,SMILES,mortality at 200 ppm
1,"Cc1ccc(CCNc2ncnc3c(F)cccc23)cc1 [Example 77, 8-fluoro-N-[2-(4-methylphenyl)ethyl]-4-quinazolinamine]",0%
2,"Fc1cccc2c(NCCc3ccc(Cl)cc3)ncnc12 [Example 78, 8-fluoro-N-[2-(4-chlorophenyl)ethyl]-4-quinazolinamine]",0%
3,"CC(C)c1ccc(CCNc2ncnc3ccc(Br)cc23)cc1 [Example 79, 6-bromo-N-[2-[4-(i-propyl)phenyl]ethyl]-4-quinazolinamine]",50%
4,"CC(C)c1ccc(CCOc2ncnc3ccccc23)cc1 [Example 88, 4-[2-[4-(i-propyl)phenyl]ethoxy]quinazoline]",100%
5,"Clc1ccc2ncnc(NCCc3ccc(-c4ccccc4)cc3)c2c1 [Example 90, 6-chloro-N-[2-(1,1'-biphenyl)-4-ylethyl]-4-quinazolinamine]",80%

# Same assay, conditions: Aphis gossypii, percent mortality; spray rate 400 ppm; read-out: MA RESULTS %
row,SMILES,mortality at 400 ppm
1,"Cc1ccc(CCNc2ncnc3c(F)cccc23)cc1 [Example 77, 8-fluoro-N-[2-(4-methylphenyl)ethyl]-4-quinazolinamine]",0%
2,"Fc1cccc2c(NCCc3ccc(Cl)cc3)ncnc12 [Example 78, 8-fluoro-N-[2-(4-chlorophenyl)ethyl]-4-quinazolinamine]",0%
3,"CC(C)c1ccc(CCNc2ncnc3ccc(Br)cc23)cc1 [Example 79, 6-bromo-N-[2-[4-(i-propyl)phenyl]ethyl]-4-quinazolinamine]",0%
4,"CC(C)c1ccc(CCOc2ncnc3ccccc23)cc1 [Example 88, 4-[2-[4-(i-propyl)phenyl]ethoxy]quinazoline]",0%
5,"Clc1ccc2ncnc(NCCc3ccc(-c4ccccc4)cc3)c2c1 [Example 90, 6-chloro-N-[2-(1,1'-biphenyl)-4-ylethyl]-4-quinazolinamine]",0%

# Tested on: Puccinia recondita tritici (leaf rust)
# Experiment: Greenhouse Test 1, foliar spray fungicide screen (LEAF RUST), host wheat
# Assay type: in vivo
# Settings: disease control rating, 400 ppm (+++ at 100 ppm)
row,SMILES,LEAF RUST
1,"Cc1ccc(CCNc2ncnc3c(F)cccc23)cc1 [Example 77, 8-fluoro-N-[2-(4-methylphenyl)ethyl]-4-quinazolinamine]",++ (++ = 90-100% control at 400 ppm)
2,"Fc1cccc2c(NCCc3ccc(Cl)cc3)ncnc12 [Example 78, 8-fluoro-N-[2-(4-chlorophenyl)ethyl]-4-quinazolinamine]",+++ (+++ = 90-100% control at 100 ppm)
3,"CC(C)c1ccc(CCNc2ncnc3ccc(Br)cc23)cc1 [Example 79, 6-bromo-N-[2-[4-(i-propyl)phenyl]ethyl]-4-quinazolinamine]",++ (++ = 90-100% control at 400 ppm)
4,"CC(C)c1ccc(CCOc2ncnc3ccccc23)cc1 [Example 88, 4-[2-[4-(i-propyl)phenyl]ethoxy]quinazoline]",+++ (+++ = 90-100% control at 100 ppm)
5,"Clc1ccc2ncnc(NCCc3ccc(-c4ccccc4)cc3)c2c1 [Example 90, 6-chloro-N-[2-(1,1'-biphenyl)-4-ylethyl]-4-quinazolinamine]",+ (+ = 20-89% control at 400 ppm)

# Tested on: Pyricularia oryzae (rice blast)
# Experiment: not given
# Assay type: in vivo
# Settings: disease control rating, foliar spray, host rice; 400 ppm (+++ at 100 ppm)
row,SMILES,RICE BLAST
1,"Cc1ccc(CCNc2ncnc3c(F)cccc23)cc1 [Example 77, 8-fluoro-N-[2-(4-methylphenyl)ethyl]-4-quinazolinamine]",++ (++ = 90-100% control at 400 ppm)
2,"Fc1cccc2c(NCCc3ccc(Cl)cc3)ncnc12 [Example 78, 8-fluoro-N-[2-(4-chlorophenyl)ethyl]-4-quinazolinamine]",+++ (+++ = 90-100% control at 100 ppm)
3,"CC(C)c1ccc(CCNc2ncnc3ccc(Br)cc23)cc1 [Example 79, 6-bromo-N-[2-[4-(i-propyl)phenyl]ethyl]-4-quinazolinamine]",+++ (+++ = 90-100% control at 100 ppm)
4,"CC(C)c1ccc(CCOc2ncnc3ccccc23)cc1 [Example 88, 4-[2-[4-(i-propyl)phenyl]ethoxy]quinazoline]",+++ (+++ = 90-100% control at 100 ppm)
5,"Clc1ccc2ncnc(NCCc3ccc(-c4ccccc4)cc3)c2c1 [Example 90, 6-chloro-N-[2-(1,1'-biphenyl)-4-ylethyl]-4-quinazolinamine]",+ (+ = 20-89% control at 400 ppm)

# Tested on: Erysiphe graminis tritici (powdery mildew)
# Experiment: Greenhouse Test 1, foliar spray fungicide screen (POWD MDEW), host wheat
# Assay type: in vivo
# Settings: disease control rating, 400 ppm (+++ at 100 ppm)
row,SMILES,POWD MDEW
1,"Cc1ccc(CCNc2ncnc3c(F)cccc23)cc1 [Example 77, 8-fluoro-N-[2-(4-methylphenyl)ethyl]-4-quinazolinamine]",- (- = 0-19% control at 400 ppm)
2,"Fc1cccc2c(NCCc3ccc(Cl)cc3)ncnc12 [Example 78, 8-fluoro-N-[2-(4-chlorophenyl)ethyl]-4-quinazolinamine]",+ (+ = 20-89% control at 400 ppm)
3,"CC(C)c1ccc(CCNc2ncnc3ccc(Br)cc23)cc1 [Example 79, 6-bromo-N-[2-[4-(i-propyl)phenyl]ethyl]-4-quinazolinamine]",+ (+ = 20-89% control at 400 ppm)
4,"CC(C)c1ccc(CCOc2ncnc3ccccc23)cc1 [Example 88, 4-[2-[4-(i-propyl)phenyl]ethoxy]quinazoline]",+++ (+++ = 90-100% control at 100 ppm)
5,"Clc1ccc2ncnc(NCCc3ccc(-c4ccccc4)cc3)c2c1 [Example 90, 6-chloro-N-[2-(1,1'-biphenyl)-4-ylethyl]-4-quinazolinamine]",+ (+ = 20-89% control at 400 ppm)

# Tested on: Pseudoperonospora cubensis (downy mildew)
# Experiment: Greenhouse Test 1, foliar spray fungicide screen (DOWN MDEW), host squash
# Assay type: in vivo
# Settings: disease control rating, 400 ppm (+++ at 100 ppm)
row,SMILES,DOWN MDEW
1,"Cc1ccc(CCNc2ncnc3c(F)cccc23)cc1 [Example 77, 8-fluoro-N-[2-(4-methylphenyl)ethyl]-4-quinazolinamine]",- (- = 0-19% control at 400 ppm)
2,"Fc1cccc2c(NCCc3ccc(Cl)cc3)ncnc12 [Example 78, 8-fluoro-N-[2-(4-chlorophenyl)ethyl]-4-quinazolinamine]",+++ (+++ = 90-100% control at 100 ppm)
3,"CC(C)c1ccc(CCNc2ncnc3ccc(Br)cc23)cc1 [Example 79, 6-bromo-N-[2-[4-(i-propyl)phenyl]ethyl]-4-quinazolinamine]",+++ (+++ = 90-100% control at 100 ppm)
4,"CC(C)c1ccc(CCOc2ncnc3ccccc23)cc1 [Example 88, 4-[2-[4-(i-propyl)phenyl]ethoxy]quinazoline]",+++ (+++ = 90-100% control at 100 ppm)
5,"Clc1ccc2ncnc(NCCc3ccc(-c4ccccc4)cc3)c2c1 [Example 90, 6-chloro-N-[2-(1,1'-biphenyl)-4-ylethyl]-4-quinazolinamine]",+++ (+++ = 90-100% control at 100 ppm)

# Tested on: Southern corn rootworm (Diabrotica undecimpuctata howardi Barber)
# Experiment: Mite/insect screen, soil treatment (CRW)
# Assay type: in vivo
# Settings: Diabrotica; percent mortality; soil treatment, CRW rate 12.00 ppm; read-out: CRW RESULTS %
# Summary of the method: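 Compounds dissolved in acetone/alcohol (50:50) with Toximul R/S emulsifiers, diluted with water. Soil (15 g, with presoaked corn seed) treated with 1 mL test solution, dried 6–12 h, then five 2–3 instar larvae added; held at 23°C. Percent mortality and phytotoxicity scored after standard exposure periods.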
row,SMILES,mortality at 12 ppm
1,"Cc1ccc(CCNc2ncnc3c(F)cccc23)cc1 [Example 77, 8-fluoro-N-[2-(4-methylphenyl)ethyl]-4-quinazolinamine]",0%
2,"Fc1cccc2c(NCCc3ccc(Cl)cc3)ncnc12 [Example 78, 8-fluoro-N-[2-(4-chlorophenyl)ethyl]-4-quinazolinamine]",0%
3,"CC(C)c1ccc(CCNc2ncnc3ccc(Br)cc23)cc1 [Example 79, 6-bromo-N-[2-[4-(i-propyl)phenyl]ethyl]-4-quinazolinamine]",0%
4,"CC(C)c1ccc(CCOc2ncnc3ccccc23)cc1 [Example 88, 4-[2-[4-(i-propyl)phenyl]ethoxy]quinazoline]",0%
5,"Clc1ccc2ncnc(NCCc3ccc(-c4ccccc4)cc3)c2c1 [Example 90, 6-chloro-N-[2-(1,1'-biphenyl)-4-ylethyl]-4-quinazolinamine]",0%

# Same assay, conditions: Diabrotica; percent mortality; soil treatment, CRW rate 24.00 ppm; read-out: CRW RESULTS %
row,SMILES,mortality at 24 ppm
1,"Cc1ccc(CCNc2ncnc3c(F)cccc23)cc1 [Example 77, 8-fluoro-N-[2-(4-methylphenyl)ethyl]-4-quinazolinamine]",0%
2,"Fc1cccc2c(NCCc3ccc(Cl)cc3)ncnc12 [Example 78, 8-fluoro-N-[2-(4-chlorophenyl)ethyl]-4-quinazolinamine]",100%
3,"CC(C)c1ccc(CCNc2ncnc3ccc(Br)cc23)cc1 [Example 79, 6-bromo-N-[2-[4-(i-propyl)phenyl]ethyl]-4-quinazolinamine]",0%
4,"CC(C)c1ccc(CCOc2ncnc3ccccc23)cc1 [Example 88, 4-[2-[4-(i-propyl)phenyl]ethoxy]quinazoline]",0%
5,"Clc1ccc2ncnc(NCCc3ccc(-c4ccccc4)cc3)c2c1 [Example 90, 6-chloro-N-[2-(1,1'-biphenyl)-4-ylethyl]-4-quinazolinamine]",0%

# Tested on: southern armyworm (Spodopetra eridania Cramer)
# Experiment: Mite/insect screen, sprayed squash leaves (SAW)
# Assay type: in vivo
# Settings: Spodoptera eridania, percent mortality; spray rate 200 ppm; read-out: SAW RESULTS %
# Summary of the method: as §1
row,SMILES,mortality at 200 ppm
1,"Cc1ccc(CCNc2ncnc3c(F)cccc23)cc1 [Example 77, 8-fluoro-N-[2-(4-methylphenyl)ethyl]-4-quinazolinamine]",0%
2,"Fc1cccc2c(NCCc3ccc(Cl)cc3)ncnc12 [Example 78, 8-fluoro-N-[2-(4-chlorophenyl)ethyl]-4-quinazolinamine]",100%
3,"CC(C)c1ccc(CCNc2ncnc3ccc(Br)cc23)cc1 [Example 79, 6-bromo-N-[2-[4-(i-propyl)phenyl]ethyl]-4-quinazolinamine]",0%
4,"CC(C)c1ccc(CCOc2ncnc3ccccc23)cc1 [Example 88, 4-[2-[4-(i-propyl)phenyl]ethoxy]quinazoline]",0%
5,"Clc1ccc2ncnc(NCCc3ccc(-c4ccccc4)cc3)c2c1 [Example 90, 6-chloro-N-[2-(1,1'-biphenyl)-4-ylethyl]-4-quinazolinamine]",0%

# Same assay, conditions: Spodoptera eridania, percent mortality; spray rate 400 ppm; read-out: SAW RESULTS %
row,SMILES,mortality at 400 ppm
1,"Cc1ccc(CCNc2ncnc3c(F)cccc23)cc1 [Example 77, 8-fluoro-N-[2-(4-methylphenyl)ethyl]-4-quinazolinamine]",0%
2,"Fc1cccc2c(NCCc3ccc(Cl)cc3)ncnc12 [Example 78, 8-fluoro-N-[2-(4-chlorophenyl)ethyl]-4-quinazolinamine]",80%
3,"CC(C)c1ccc(CCNc2ncnc3ccc(Br)cc23)cc1 [Example 79, 6-bromo-N-[2-[4-(i-propyl)phenyl]ethyl]-4-quinazolinamine]",0%
4,"CC(C)c1ccc(CCOc2ncnc3ccccc23)cc1 [Example 88, 4-[2-[4-(i-propyl)phenyl]ethoxy]quinazoline]",100%
5,"Clc1ccc2ncnc(NCCc3ccc(-c4ccccc4)cc3)c2c1 [Example 90, 6-chloro-N-[2-(1,1'-biphenyl)-4-ylethyl]-4-quinazolinamine]",100%

# Tested on: Twospotted spider mites (Tetranychus urticae Koch)
# Experiment: Mite/insect screen, sprayed squash cotyledons (SM)
# Assay type: in vivo
# Settings: Tetranychus urticae, percent mortality; spray rate 200 ppm; read-out: SM RESULTS %
# Summary of the method: as §1
row,SMILES,mortality at 200 ppm
1,"Cc1ccc(CCNc2ncnc3c(F)cccc23)cc1 [Example 77, 8-fluoro-N-[2-(4-methylphenyl)ethyl]-4-quinazolinamine]",0%
2,"Fc1cccc2c(NCCc3ccc(Cl)cc3)ncnc12 [Example 78, 8-fluoro-N-[2-(4-chlorophenyl)ethyl]-4-quinazolinamine]",0%
3,"CC(C)c1ccc(CCNc2ncnc3ccc(Br)cc23)cc1 [Example 79, 6-bromo-N-[2-[4-(i-propyl)phenyl]ethyl]-4-quinazolinamine]",50%
4,"CC(C)c1ccc(CCOc2ncnc3ccccc23)cc1 [Example 88, 4-[2-[4-(i-propyl)phenyl]ethoxy]quinazoline]",100%
5,"Clc1ccc2ncnc(NCCc3ccc(-c4ccccc4)cc3)c2c1 [Example 90, 6-chloro-N-[2-(1,1'-biphenyl)-4-ylethyl]-4-quinazolinamine]",100%

# Same assay, conditions: Tetranychus urticae, percent mortality; spray rate 400 ppm; read-out: SM RESULTS %
row,SMILES,mortality at 400 ppm
1,"Cc1ccc(CCNc2ncnc3c(F)cccc23)cc1 [Example 77, 8-fluoro-N-[2-(4-methylphenyl)ethyl]-4-quinazolinamine]",0%
2,"Fc1cccc2c(NCCc3ccc(Cl)cc3)ncnc12 [Example 78, 8-fluoro-N-[2-(4-chlorophenyl)ethyl]-4-quinazolinamine]",0%
3,"CC(C)c1ccc(CCNc2ncnc3ccc(Br)cc23)cc1 [Example 79, 6-bromo-N-[2-[4-(i-propyl)phenyl]ethyl]-4-quinazolinamine]",0%
4,"CC(C)c1ccc(CCOc2ncnc3ccccc23)cc1 [Example 88, 4-[2-[4-(i-propyl)phenyl]ethoxy]quinazoline]",0%
5,"Clc1ccc2ncnc(NCCc3ccc(-c4ccccc4)cc3)c2c1 [Example 90, 6-chloro-N-[2-(1,1'-biphenyl)-4-ylethyl]-4-quinazolinamine]",0%

# Tested on: Botrytis cinerea (gray mold)
# Experiment: Greenhouse Test 1, foliar spray fungicide screen (GRAY MOLD), host grape berries
# Assay type: in vivo
# Settings: disease control rating, 400 ppm (+++ at 100 ppm)
row,SMILES,GRAY MOLD
1,"Cc1ccc(CCNc2ncnc3c(F)cccc23)cc1 [Example 77, 8-fluoro-N-[2-(4-methylphenyl)ethyl]-4-quinazolinamine]",- (- = 0-19% control at 400 ppm)
2,"Fc1cccc2c(NCCc3ccc(Cl)cc3)ncnc12 [Example 78, 8-fluoro-N-[2-(4-chlorophenyl)ethyl]-4-quinazolinamine]",- (- = 0-19% control at 400 ppm)
3,"CC(C)c1ccc(CCNc2ncnc3ccc(Br)cc23)cc1 [Example 79, 6-bromo-N-[2-[4-(i-propyl)phenyl]ethyl]-4-quinazolinamine]",- (- = 0-19% control at 400 ppm)
4,"CC(C)c1ccc(CCOc2ncnc3ccccc23)cc1 [Example 88, 4-[2-[4-(i-propyl)phenyl]ethoxy]quinazoline]",- (- = 0-19% control at 400 ppm)
5,"Clc1ccc2ncnc(NCCc3ccc(-c4ccccc4)cc3)c2c1 [Example 90, 6-chloro-N-[2-(1,1'-biphenyl)-4-ylethyl]-4-quinazolinamine]",- (- = 0-19% control at 400 ppm)
